18 compounds from ChEMBL document CHEMBL1135948, “A solid-phase approach towards the synthesis of PDE5 inhibitors” (Bioorg Med Chem Lett, 2002) can be followed below.

Molecules are shown by their SMILES.

One may read the inhibition as how much of the control response was suppressed. Lower therefore signals little suppression.

The target in this test is cGMP-specific 3',5'-cyclic phosphodiesterase (Homo sapiens) (UniProt O76074). Put plainly: Percentage inhibition against phosphodiesterase 5 (PDE5) was determined using [3H]cGMP scintillation proximity assay at concentration of 1 uM. Background: In a scintillation proximity assay essentially only radioactivity close to the scintillant gives light.

`CC(C)Cn1c(=O)n(C)c(=O)c2[nH]c(Cc3ccc(Br)cc3)nc21` came in with an inhibition of 93%.
With `CC(C)Cn1c(=O)n(-c2ccccn2)c(=O)c2[nH]c(Cc3ccc(Br)cc3)nc21` the figure was 20%; with `CC(C)Cn1c(=O)n(CCC2CCCCC2)c(=O)c2[nH]c(Cc3ccc(Br)cc3)nc21`, 42%.
In the case of `CC(C)Cn1c(=O)n(CC(C)(C)C)c(=O)c2[nH]c(Cc3ccc(Br)cc3)nc21`, the inhibition is 35%.
With `CCOc1ccccc1-n1c(=O)c2[nH]c(Cc3ccc(Br)cc3)nc2n(CC(C)C)c1=O` the figure was 38%; with `CC(C)Cn1c(=O)n(C2CCC2)c(=O)c2[nH]c(Cc3ccc(Br)cc3)nc21`, 4%; with `CC(C)Cn1c(=O)n(-c2ccncc2)c(=O)c2[nH]c(Cc3ccc(Br)cc3)nc21`, 22%.
Under `CC(C)Cn1c(=O)n(-c2cncn2C)c(=O)c2[nH]c(Cc3ccc(Br)cc3)nc21` stands 59%; under `CC(C)Cn1c(=O)n(Cc2cccc3c2OCO3)c(=O)c2[nH]c(Cc3ccc(Br)cc3)nc21`, 13%.
Regarding `CC(C)Cn1c(=O)n(CN(C(C)C)C(C)C)c(=O)c2[nH]c(Cc3ccc(Br)cc3)nc21`, the inhibition amounted to 41%.
Under `CCn1c(=O)c2[nH]c(Cc3ccc(Br)cc3)nc2n(CC(C)C)c1=O` stands 93%; under `CC(C)Cn1c(=O)n(CO)c(=O)c2[nH]c(Cc3ccc(Br)cc3)nc21`, 88%.
In the case of `CC(C)Cn1c(=O)n(COc2ccccc2)c(=O)c2[nH]c(Cc3ccc(Br)cc3)nc21`, the inhibition amounted to 33%.
Compound `CC(C)Cn1c(=O)n(CN)c(=O)c2[nH]c(Cc3ccc(Br)cc3)nc21` yielded an inhibition of 38%.
With `CC(C)Cn1c(=O)[nH]c(=O)c2[nH]c(Cc3ccc(Br)cc3)nc21` the figure was 42%.
`C#Cn1c(=O)c2[nH]c(Cc3ccc(Br)cc3)nc2n(CC(C)C)c1=O` yielded an inhibition of 68%.
With `CCCn1c(=O)c2[nH]c(Cc3ccc(Br)cc3)nc2n(CC(C)C)c1=O` the figure was 57%; with `CC(C)Cn1c(=O)n(CSc2ccccc2)c(=O)c2[nH]c(Cc3ccc(Br)cc3)nc21`, 15%.
